Laboratory results from patent publication US11739098B2 (BRISTOL-MYERS SQUIBB COMPANY, priority 2017, dated 2023).

What was measured:
Format in all cases: cell-based
human TLR7 = molecular target: T1, human TLR7 (Homo sapiens, UniProt Q9NYK1); assay: TLR7 inhibition reporter assay (HEK-Blue cells, SEAP reporter, gardiquimod stimulation); details: HEK-Blue cells overexpressing human TLR7, SEAP reporter, gardiquimod 7.5 μM
T1 construct: host or cells: HEK-Blue cells (HEK293-derived reporter line)
T1 sequence (Q9NYK1 27-1049): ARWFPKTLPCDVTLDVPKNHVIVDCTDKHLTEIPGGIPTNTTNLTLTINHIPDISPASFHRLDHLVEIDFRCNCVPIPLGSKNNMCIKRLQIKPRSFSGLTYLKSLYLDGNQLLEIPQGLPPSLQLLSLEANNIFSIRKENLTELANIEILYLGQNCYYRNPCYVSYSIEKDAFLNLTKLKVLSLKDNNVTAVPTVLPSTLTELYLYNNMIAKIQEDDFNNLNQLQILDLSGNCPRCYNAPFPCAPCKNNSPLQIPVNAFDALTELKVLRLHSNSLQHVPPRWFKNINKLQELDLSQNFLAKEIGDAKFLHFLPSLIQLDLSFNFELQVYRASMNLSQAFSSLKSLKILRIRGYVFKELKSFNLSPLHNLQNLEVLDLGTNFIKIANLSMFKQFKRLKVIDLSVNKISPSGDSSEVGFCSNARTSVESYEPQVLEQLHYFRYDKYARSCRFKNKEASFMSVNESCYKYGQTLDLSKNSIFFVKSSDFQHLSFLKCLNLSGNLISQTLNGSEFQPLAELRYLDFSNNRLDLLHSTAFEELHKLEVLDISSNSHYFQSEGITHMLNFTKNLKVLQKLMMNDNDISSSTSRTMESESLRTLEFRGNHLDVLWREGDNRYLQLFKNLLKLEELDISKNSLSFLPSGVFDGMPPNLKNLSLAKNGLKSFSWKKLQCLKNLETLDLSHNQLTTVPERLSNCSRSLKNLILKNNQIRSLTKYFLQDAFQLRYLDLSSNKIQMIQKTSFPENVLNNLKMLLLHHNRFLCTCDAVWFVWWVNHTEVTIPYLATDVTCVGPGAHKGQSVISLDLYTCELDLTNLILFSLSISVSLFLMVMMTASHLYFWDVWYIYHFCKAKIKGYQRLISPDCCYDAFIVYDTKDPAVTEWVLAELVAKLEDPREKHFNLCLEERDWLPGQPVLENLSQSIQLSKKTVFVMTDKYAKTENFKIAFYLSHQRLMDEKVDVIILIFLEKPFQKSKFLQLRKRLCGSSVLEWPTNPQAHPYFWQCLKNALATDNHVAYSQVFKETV
In short: (§1)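 HEK-Blue cells overexpressing human TLR7, TLR8 or TLR9 (NF-κB/AP-1-driven SEAP) pre-treated 30 min at room temperature with compound (0.05 nM–50 μM), then stimulated with gardiquimod 7.5 μM (TLR7), R848 15.9 μM (TLR8) or ODN2006 5 nM (TLR9). SEAP read colorimetrically after 22 h at 37 °C; % inhibition calculated.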

human TLR8 = molecular target: T2, human TLR8 (Homo sapiens, UniProt Q9NR97); assay: TLR8 inhibition reporter assay (HEK-Blue cells, SEAP reporter, R848 stimulation); details: HEK-Blue cells overexpressing human TLR8, SEAP reporter, R848 15.9 μM
T2 construct: host or cells: HEK-Blue cells (HEK293-derived reporter line)
T2 sequence (Q9NR97 27-1041): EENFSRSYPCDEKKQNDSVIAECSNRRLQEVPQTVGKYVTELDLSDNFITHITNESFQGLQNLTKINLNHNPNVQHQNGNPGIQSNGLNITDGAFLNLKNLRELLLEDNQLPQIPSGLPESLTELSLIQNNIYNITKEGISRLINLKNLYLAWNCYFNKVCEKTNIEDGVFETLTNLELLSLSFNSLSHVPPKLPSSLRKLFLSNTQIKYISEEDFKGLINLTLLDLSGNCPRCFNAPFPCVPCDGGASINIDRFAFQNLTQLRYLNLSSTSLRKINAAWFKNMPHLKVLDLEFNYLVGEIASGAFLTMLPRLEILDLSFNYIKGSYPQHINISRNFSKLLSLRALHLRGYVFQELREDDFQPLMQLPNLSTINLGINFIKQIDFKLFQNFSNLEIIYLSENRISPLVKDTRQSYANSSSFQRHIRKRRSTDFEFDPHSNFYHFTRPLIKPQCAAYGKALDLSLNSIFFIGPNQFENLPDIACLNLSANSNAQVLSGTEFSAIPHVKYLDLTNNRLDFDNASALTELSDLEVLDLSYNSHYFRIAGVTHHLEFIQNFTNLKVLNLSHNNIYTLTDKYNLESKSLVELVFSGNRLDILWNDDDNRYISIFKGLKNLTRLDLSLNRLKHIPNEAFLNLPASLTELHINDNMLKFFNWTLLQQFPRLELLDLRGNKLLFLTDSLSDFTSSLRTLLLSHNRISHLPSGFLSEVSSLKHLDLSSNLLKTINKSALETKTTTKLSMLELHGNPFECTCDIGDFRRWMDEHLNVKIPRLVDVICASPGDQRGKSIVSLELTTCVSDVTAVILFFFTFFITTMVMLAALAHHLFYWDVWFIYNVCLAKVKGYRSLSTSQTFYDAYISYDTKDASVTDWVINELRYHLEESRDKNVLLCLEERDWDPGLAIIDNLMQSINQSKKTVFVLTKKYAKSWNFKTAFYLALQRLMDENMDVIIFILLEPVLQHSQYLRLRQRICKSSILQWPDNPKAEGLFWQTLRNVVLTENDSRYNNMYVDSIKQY
In short: as §1

human TLR9 = molecular target: T3, human TLR9 (Homo sapiens, UniProt Q9NR96); assay: TLR9 inhibition reporter assay (HEK-Blue cells, SEAP reporter, ODN2006 stimulation); details: HEK-Blue cells overexpressing human TLR9, SEAP reporter, ODN2006 5 nM
T3 construct: host or cells: HEK-Blue cells (HEK293-derived reporter line)
T3 sequence (Q9NR96 26-1032): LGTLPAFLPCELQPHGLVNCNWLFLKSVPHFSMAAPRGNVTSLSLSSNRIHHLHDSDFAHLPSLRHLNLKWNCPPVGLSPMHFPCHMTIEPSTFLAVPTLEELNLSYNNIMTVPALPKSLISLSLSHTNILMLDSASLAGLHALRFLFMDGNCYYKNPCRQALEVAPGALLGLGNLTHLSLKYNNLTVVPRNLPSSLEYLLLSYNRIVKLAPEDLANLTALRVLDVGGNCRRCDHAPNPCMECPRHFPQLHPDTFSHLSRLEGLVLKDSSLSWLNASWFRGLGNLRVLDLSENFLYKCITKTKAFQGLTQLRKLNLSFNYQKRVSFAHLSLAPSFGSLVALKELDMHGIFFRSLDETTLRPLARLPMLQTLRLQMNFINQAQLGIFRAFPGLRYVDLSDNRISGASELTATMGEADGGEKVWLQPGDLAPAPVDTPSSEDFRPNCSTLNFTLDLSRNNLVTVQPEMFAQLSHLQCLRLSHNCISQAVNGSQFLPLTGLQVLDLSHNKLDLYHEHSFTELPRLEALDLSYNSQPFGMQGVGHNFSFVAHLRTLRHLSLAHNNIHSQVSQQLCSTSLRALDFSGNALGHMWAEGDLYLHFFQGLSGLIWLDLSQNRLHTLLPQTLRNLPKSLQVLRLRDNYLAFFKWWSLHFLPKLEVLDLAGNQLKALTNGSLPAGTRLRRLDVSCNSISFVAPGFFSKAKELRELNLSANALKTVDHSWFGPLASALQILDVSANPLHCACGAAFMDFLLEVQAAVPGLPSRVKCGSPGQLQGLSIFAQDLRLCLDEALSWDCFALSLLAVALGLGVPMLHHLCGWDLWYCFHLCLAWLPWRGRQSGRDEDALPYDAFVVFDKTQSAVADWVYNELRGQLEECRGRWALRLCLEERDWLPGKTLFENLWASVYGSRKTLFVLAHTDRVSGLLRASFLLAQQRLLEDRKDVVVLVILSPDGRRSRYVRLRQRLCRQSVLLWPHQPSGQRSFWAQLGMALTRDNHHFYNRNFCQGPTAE
In short: as §1

Row | Structure (SMILES) | IC50 (human TLR7) [nM] | IC50 (human TLR8) [nM] | IC50 (human TLR9) [nM]
1 | CC(C)c1c(-c2ccnc3[nH]ncc23)[nH]c2ccc(C3CCN(Cc4ccc(OCCN(C)c5ccccn5)cc4)CC3)cc12 [Example 894, N-(2-(4-((4-(3-isopropyl-2-(1H-pyrazolo[3,4-b]pyridin-4-yl)-1H-indol-5-yl)piperidin-1-yl)methyl)phenoxy)ethyl)-N-methylpyridin-2-amine] | 100 to 1000 | < 100 | 100 to 1000
2 | CC(C)c1c(-c2ccc(C#N)c3[nH]ncc23)[nH]c2ccc(C3CCNCC3)cc12 [Example 235, 4-(3-isopropyl-5-(piperidin-4-yl)-1H-indol-2-yl)-1H-indazole-7-carbonitrile] | 1000 to 50000 | 1000 to 50000 | 1000 to 50000
3 | Cc1cc(-c2[nH]c3ccc(C4CCN(C(=O)CN5[C@@H]6CC[C@H]5COC6)CC4)cc3c2C(C)C)cn2nnnc12 [Example 479, 2-((1R,5S)-3-oxa-8-azabicyclo[3.2.1]octan-8-yl)-1-(4-(3-isopropyl-2-(8-methyltetrazolo[1,5-a]pyridin-6-yl)-1H-indol-5-yl)piperidin-1-yl)ethan-1-one] | < 100 | < 100 | 1000 to 50000
4 | CCc1c(-c2cc3cn(C)nc3cn2)[nH]c2ccc(C3CCNCC3)cc12 [Example 98, 5-(3-ethyl-5-(piperidin-4-yl)-1H-indol-2-yl)-2-methyl-2H-pyrazolo[3,4-c]pyridine] | 1000 to 50000 | 100 to 1000 | 1000 to 50000
5 | Cc1cc(-c2[nH]c3ccc(C4CCN(C(=O)CN(C)C)CC4)cc3c2C(C)C)c2ccccc2n1 [Example 533, 2-(dimethylamino)-1-(4-(3-isopropyl-2-(2-methylquinolin-4-yl)-1H-indol-5-yl)piperidin-1-yl)ethan-1-one] | < 100 | < 100 | 100 to 1000
6 | Cc1cc(-c2[nH]c3ccc(C4CCN(C(=O)CN5CCC(F)CC5)CC4)cc3c2C(C)C)cn2nnnc12 [Example 474, 2-(4-fluoropiperidin-1-yl)-1-(4-(3-isopropyl-2-(8-methyltetrazolo[1,5-a]pyridin-6-yl)-1H-indol-5-yl)piperidin-1-yl) ethan-1-one] | < 100 | < 100 | 1000 to 50000
7 | CC(C)c1c(-c2c[nH]c3ncncc23)[nH]c2ccc(C3CCNCC3)cc12 [Example 13, 5-(3-isopropyl-5-(piperidin-4-yl)-1H-indol-2-yl)-7H-pyrrolo[2,3-d]pyrimidine] | < 100 | < 100 | 100 to 1000
8 | CCc1c(-c2ccnc3[nH]ncc23)[nH]c2ccc(C3CCNCC3F)cc12 (stereo not drawn) [Example 177, 4-(3-ethyl-5-(3-fluoropiperidin-4-yl)-1H-indol-2-yl)-1H-pyrazolo[3,4-b]pyridine] | < 100 | < 100 | 1000 to 50000

Now from value to compound:

Row | IC50 (human TLR7) [nM] | IC50 (human TLR8) [nM] | IC50 (human TLR9) [nM] | Structure (SMILES)
9 | < 100 | < 100 | < 100 | Cc1cc2nccn2cc1-c1[nH]c2ccc(C3CCN(C4CCN(C(C)C)CC4)CC3)cc2c1C(C)C [Example 841, 6-(3-isopropyl-5-(1′-isopropyl-[1,4′-bipiperidin]-4-yl)-1H-indol-2-yl)-7-methylimidazo[1,2-a]pyridine]
10 | < 100 | 1000 to 50000 | 1000 to 50000 | Cc1nc2cc(-c3[nH]c4ccc(C5CCN(C(=O)[C@@H]6C[C@@H](O)CN6)CC5)cc4c3C(C)C)ccn2n1 [Example 540, ((2S,4R)-4-hydroxypyrrolidin-2-yl)(4-(3-isopropyl-2-(2-methyl-[1,2,4]triazolo[1,5-a]pyridin-7-yl)-1H-indol-5-yl)piperidin-1-yl) methanone]
11 | < 100 | < 100 | 1000 to 50000 | CCOc1cc(-c2[nH]c3ccc(C4CCN(CC(=O)NC)CC4)cc3c2C(C)C)cc2ncnn12 [Example 351, 2-(4-(2-(5-ethoxy-[1,2,4]triazolo[1,5-a]pyridin-7-yl)-3-isopropyl-1H-indol-5-yl)piperidin-1-yl)-N-methylacetamide]
12 | < 100 | < 100 | 100 to 1000 | CC(C)c1c(-c2c[nH]c3ncccc23)[nH]c2ccc(C3CCNCC3)cc12 [Example 17, 3-(3-isopropyl-5-(piperidin-4-yl)-1H-indol-2-yl)-1H-pyrrolo[2,3-b]pyridine]
13 | < 100 | 100 to 1000 | > 50000 | Cc1cc(-c2[nH]c3ccc(C4CCN(C(=O)CN5CCC(F)(F)CC5)CC4)cc3c2C(C)C)cn2nnnc12 [Example 482, 2-(4,4-difluoropiperidin-1-yl)-1-(4-(3-isopropyl-2-(8-methyltetrazolo[1,5-a]pyridin-6-yl)-1H-indol-5-yl)piperidin-1-yl)ethan-1-one]
14 | < 100 | < 100 | 1000 to 50000 | Cc1c(-c2[nH]c3ccc(C4CCN(CC(=O)N(C)C)CC4)cc3c2C(C)C)cn2nnnc2c1C [Example 309, 2-(4-(2-(7,8-dimethyltetrazolo[1,5-a]pyridin-6-yl)-3-isopropyl-1H-indol-5-yl)piperidin-1-yl)-N,N-dimethylacetamide]
